In US10308620B2, “Muscarinic M1 receptor positive allosteric modulators” (SUVEN LIFE SCIENCES LIMITED, priority 2015, dated 2019):
Structures can show the parent of a compound that is named as a salt.

Experiments:
[1] = Rodent pharmacokinetic study; type: in vivo, rat; settings: male Wistar rats; for clearance / half-life / Vd / Cmax / Tmax / bioavailability: rat, plasma; for Vd: read-out: Vz; for bioavailability: 3 mg/kg oral vs 1 mg/kg i.v.
Description: Rodent Pharmacokinetic Study
Male Wistar rats (260±50 grams) were used as experimental animals. Animals were housed individually in polypropylene cage. Two days prior to study, male Wistar rats were anesthetized with isoflurane for surgical placement of jugular vein catheter. Rats were randomly divided for oral (3 mg/kg) and intravenous (1 mg/kg) dosing (n=3/group) and fasted overnight before oral dosing (p.o.). However, rats allocated to intravenous (i.v.) dosing food and water was provided ad libitum.
At pre-determined point, blood was collected through jugular vein and replenished with an equivalent volume of normal saline. Collected blood was transferred into a labeled eppendorf tube containing 10 μL of heparin as an anticoagulant. Typically blood samples were collected at following time points: 0.08, 0.25, 0.5, 1, 2, 4, 6, 8, and 24 hours post dose. Blood was centrifuged at 4000 rpm for 10 minutes. Plasma was separated and stored frozen at −80° C. until analysis. The concentrations of the test compounds were quantified in plasma by qualified LC-MS/MS method using suitable extraction technique. The test compounds were quantified in the calibration range around 1-1000 ng/mL in plasma. Study samples were analyzed using calibration samples in the batch and quality control samples spread across the batch.
Pharmacokinetic parameters Cmax, Tmax, AUCt, T1/2, clearance, Vz and bioavailability were calculated by non-compartmental model using standard non-compartmental model by using Phoenix WinNonlin 6.0.2 or 6.0.3 version Software package.

[2] = target: recombinant human Muscarinic M1 receptor (Homo sapiens (Human), UniProt P11229); test: Allosteric potency EC50, CHO cells with pCRE-Luc reporter, in presence of EC20 of acetylcholine; type: cell-based; settings: 4 hours
Description: Determination of Allosteric Potency EC50 Values for Muscarinic M1 Receptor:
A stable CHO cell line expressing recombinant human Muscarinic M1 receptor and pCRE-Luc reporter system was used for cell-based assay. The assay offers a non-radioactive based approach to determine binding of a compound to GPCRs. In this specific assay, the level of intracellular cyclic AMP which is modulated by activation or inhibition of the receptor is measured. The recombinant cells harbor luciferase reporter gene under the control of cAMP response element.
The above cells were grown in 96 well clear bottom white plates in Hams F12 medium containing 10% fetal bovine serum (FBS). Prior to the addition of compounds or standard agonist, cells were serum starved overnight. Increasing concentrations of test compounds were added along with EC20 of acetylcholine in OptiMEM medium to the cells. The incubation was continued at 37° C. in CO2 incubator for 4 hours. Medium was removed and cells were washed with phosphate buffered saline. The cells were lysed and luciferase activity was measured in a Luminometer. Luminescence units were plotted against the compound concentrations using Graphpad software. EC50 values of the compounds were defined as the concentration required in stimulating the luciferase activity by 50% in presence of EC20 of acetylcholine.

Sequence of recombinant human Muscarinic M1 receptor (P11229 whole entry): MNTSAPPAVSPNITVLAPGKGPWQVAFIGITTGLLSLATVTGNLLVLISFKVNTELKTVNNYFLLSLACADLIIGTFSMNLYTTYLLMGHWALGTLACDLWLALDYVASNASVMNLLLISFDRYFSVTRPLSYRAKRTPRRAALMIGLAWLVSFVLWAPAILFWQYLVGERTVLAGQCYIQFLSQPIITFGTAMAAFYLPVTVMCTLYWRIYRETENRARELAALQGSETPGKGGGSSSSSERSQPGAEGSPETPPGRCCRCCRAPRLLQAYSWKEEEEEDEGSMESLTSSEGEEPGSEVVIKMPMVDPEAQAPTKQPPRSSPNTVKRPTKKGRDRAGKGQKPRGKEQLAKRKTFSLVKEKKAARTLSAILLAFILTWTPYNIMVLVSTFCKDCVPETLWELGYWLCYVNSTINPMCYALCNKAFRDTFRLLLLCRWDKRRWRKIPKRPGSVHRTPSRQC

| SMILES | EC50 [2] | also measured |
| --- | --- | --- |
| O=C(N[C@H]1CCCC[C@@H]1O)C1=CN(Cc2ccccc2F)c2c(F)cccc2O1 [Example 55, N-(cis-1S,2S-2-Hydroxycyclohexyl)-4-(2-fluorobenzyl)-5-fluoro-4H-benzo[1,4]oxazine-2-carboxamide] | 828 nM | – |
| O=C(N[C@H]1CCCC[C@@H]1O)C1=CN(Cc2ccccn2)c2c(F)cccc2O1 [Example 56, N-(cis-1S,2S-2-Hydroxycyclohexyl)-4-(pyridin-2-ylmethyl)-5-fluoro-4H-benzo[1,4]oxazine-2-carboxamide] | 1480 nM | – |
| Cc1cc(-c2cc(CN3C=C(C(=O)N[C@H]4CCCC[C@@H]4O)Oc4ccccc43)ccn2)cnc1F [Example 58, N-(cis-1S,2S-2-Hydroxycyclohexyl)-4-(6′-fluoro-5′-methyl-[2,3′]bipyridinyl-4-ylmethyl)-4H-benzo[1,4]oxazine-2-carboxamide] | 1340 nM | – |
| Cn1ccc(-c2cc(CN3C=C(C(=O)N[C@H]4CCCC[C@@H]4O)Oc4ccccc43)ccn2)n1 [Example 59, N-(cis-1S,2S-2-Hydroxycyclohexyl)-4-[12-(1-methyl-1H-pyrazol-3-yl)-pyridin-4-ylmethyl]-4H-benzo[1,4]oxazine-2-carboxamide] | 1010 nM | – |
| O=C(N[C@H]1CCCC[C@@H]1O)C1=CN(Cc2ccccc2F)c2c(F)ccc(F)c2O1 [Example 61, N-(cis-1S,2S-2-Hydroxycyclohexyl)-4-(2-fluorobenzyl)-5,8-difluoro-4H-benzo[1,4]oxazine-2-carboxamide] | 219 nM | – |
| O=C(NC1CCNCC1F)C1=CN(Cc2ccccc2F)c2cccc(F)c2O1 (stereo not drawn) [Example 73, N-(3-Fluoropiperidin-4-yl)-4-(2-fluorobenzyl)-8-fluoro-4H-benzo[1,4]oxazine-2-carboxamide hydrochloride] | 2370 nM | – |
| O=C(NC1CCNCC1F)C1=CN(Cc2cccc(F)c2F)c2cccc(F)c2O1 (stereo not drawn) [Example 74, N-(3-Fluoropiperidin-4-yl)-4-(2,3-difluorobenzyl)-8-fluoro-4H-benzo[1,4]oxazine-2-carboxamide hydrochloride] | 2100 nM | – |
| O=C(NC1CCNCC1O)C1=CN(Cc2ccccc2F)c2ccccc2O1 (stereo not drawn) [Example 76, N-(3-Hydroxypiperidin-4-yl)-4-(2-fluorobenzyl)-4H-benzo[1,4]oxazine-2-carboxamide trifluoroacetate] | 412 nM | – |
| O=C(N[C@H]1CCCC[C@@H]1O)C1=CN(Cc2cccc(F)c2)c2ccccc2S1 [Example 86, N-(cis-1S,2S-2-Hydroxycyclohexyl)-4-(3-fluorobenzyl)-4H-benzo[1,4]thiazine-2-carboxamide] | 936 nM | – |
| O=C(N[C@H]1CCCC[C@@H]1O)C1=CN(Cc2ccc(F)cc2)c2ccccc2S1 [Example 89, N-(cis-1S,2S-2-Hydroxycyclohexyl)-4-{4-fluorobenzyl}-4H-benzo[1,4]thiazine-2-carboxamide] | 460 nM | – |
| O=C(N[C@H]1CCCC[C@@H]1O)C1=CN(Cc2ccncc2)c2ccccc2S1 [Example 90, N-(cis-1S,2S-2-Hydroxycyclohexyl)-4-{pyridin-4-ylmethyl}-4H-benzo[1,4]thiazine-2-carboxamide] | 599 nM | – |
| O=C(N[C@H]1CCCC[C@@H]1O)C1=CN(Cc2ccccn2)c2ccccc2S1 [Example 92, N-(cis-1S,2S-2-Hydroxycyclohexyl)-4-{pyridin-2-ylmethyl}-4H-benzo[1,4]thiazine-2-carboxamide] | 1470 nM | AUC0-t ([1]; 1 mg/kg i.v. (bolus)): 262 ± 50 ng·h/mL; AUC0-t ([1]; 3 mg/kg oral (gavage)): 255 ± 32 ng·h/mL; clearance ([1]; iv, 1 mg/kg i.v. (bolus)): 64 ± 11 mL/min/kg; half-life ([1]; iv, 1 mg/kg i.v. (bolus)): 0.8 ± 0.2 h; Vd ([1]; iv, 1 mg/kg i.v. (bolus)): 4.2 ± 0.7 L/kg; Cmax ([1]; 3 mg/kg oral (gavage)): 195 ± 22 ng/mL; Tmax ([1]; 3 mg/kg oral (gavage)): 0.33 ± 0.14 h; half-life ([1]; 3 mg/kg oral (gavage)): 1.7 ± 1 h; bioavailability [1]: 32 ± 4% |
| O=C(N[C@H]1CCCC[C@@H]1O)C1=CN(Cc2cccc(F)c2F)c2ccccc2[S+]1[O-] (stereo partly drawn) [Example 93, N-(cis-1S,2S-2-Hydroxycyclohexyl)-4-(2,3-difluorobenzyl)-1-oxo-4H-benzo[1,4]thiazine-2-carboxamide] | 906 nM | – |
| O=C(N[C@H]1CCCC[C@@H]1O)C1=CN(Cc2ccccc2)c2ccccc2[S+]1[O-] (stereo partly drawn) [Example 94, N-(cis-1S,2S-2-Hydroxycyclohexyl)-4-benzyl-1-oxo-4H-benzo[1,4]thiazine-2-carboxamide] | 1400 nM | – |
| O=C(N[C@H]1CCCC[C@@H]1O)C1=CN(Cc2cccc(F)c2)c2ccccc2[S+]1[O-] (stereo partly drawn) [Example 95, N-(cis-1S,2S-2-Hydroxycyclohexyl)-4-{3-fluorobenzyl}-1-oxo-4H-benzo[1,4]thiazine-2-carboxamide] | 1520 nM | – |
| O=C(N[C@H]1CCCC[C@@H]1O)C1=CN(Cc2ccccn2)c2ccccc2[S+]1[O-] (stereo partly drawn) [Example 96, N-(cis-1 S, 2S-2-Hydroxycyclohexyl)-4-{pyridin-2-ylmethyl}-1-oxo-4H-benzo[1,4]thiazine-2-carboxamide] | 2160 nM | – |
| O=C(N[C@H]1CCCC[C@@H]1O)C1=CN(Cc2ccc(Cl)nc2)c2ccccc2[S+]1[O-] (stereo partly drawn) [Example 97, N-(cis-1S, 2S-2-Hydroxycyclohexyl)-4-{2-chloropyridin-5-ylmethyl}-1-oxo-4H-benzo[1,4]thiazine-2-carboxamide] | 1060 nM | – |

Compounds with a lower EC50 [2], results first:

| EC50 [2] | SMILES | also measured |
| --- | --- | --- |
| 120 nM | O=C(N[C@H]1CCCC[C@@H]1O)C1=CN(Cc2ccc(F)c(F)c2)c2ccccc2O1 [Example 19, N-(cis-1S,2S-2-Hydroxycyclohexyl)-4-(3,4-difluorobenzyl)-4H-benzo[1,4]oxazine-2-carboxamide] | AUC0-t ([1]; 1 mg/kg i.v. (bolus)): 1240 ± 84 ng·h/mL; AUC0-t ([1]; 3 mg/kg oral (gavage)): 2490 ± 223 ng·h/mL; clearance ([1]; iv, 1 mg/kg i.v. (bolus)): 13 ± 1 mL/min/kg; half-life ([1]; iv, 1 mg/kg i.v. (bolus)): 3.8 ± 0.5 h; Vd ([1]; iv, 1 mg/kg i.v. (bolus)): 4.4 ± 0.2 L/kg; Cmax ([1]; 3 mg/kg oral (gavage)): 252 ± 17 ng/mL; Tmax ([1]; 3 mg/kg oral (gavage)): 1.67 ± 0.6 h; half-life ([1]; 3 mg/kg oral (gavage)): 3.7 ± 0.1 h; bioavailability [1]: 67 ± 6% |
| 179 nM | O=C(N[C@H]1CCCC[C@@H]1O)C1=CN(Cc2ccncc2)c2cccc(F)c2O1 [Example 57, N-(cis-1S,2S-2-Hydroxycyclohexyl)-4-(pyridin-4-ylmethyl)-8-fluoro-4H-benzo[1,4]oxazine-2-carboxamide] | – |
| 160 nM | O=C(NC1CCNCC1O)C1=CN(Cc2cccc(F)c2F)c2cccc(F)c2O1 (stereo not drawn) [Example 75, N-(3-Hydroxypiperidin-4-yl)-4-(2,3-difluorobenzyl)-8-fluoro-4H-benzo[1,4]oxazine-2-carboxamide trifluoroacetate] | – |
| 117 nM | O=C(N[C@H]1CCCC[C@@H]1O)C1=CN(Cc2cccc(F)c2F)c2ccccc2S1 [Example 85, N-(cis-1S,2S-2-Hydroxycyclohexyl)-4-(2,3-difluorobenzyl)-4H-benzo[1,4]thiazine-2-carboxamide] | – |
| 131 nM | O=C(N[C@H]1CCCC[C@@H]1O)C1=CN(Cc2ccccc2)c2ccccc2S1 [Example 87, N-(cis-1S,2S-2-Hydroxycyclohexyl)-4-benzyl-4H-benzo[1,4]thiazine-2-carboxamide] | – |
| 145 nM | COc1ccc(CN2C=C(C(=O)N[C@H]3CCCC[C@@H]3O)Sc3ccccc32)cc1 [Example 88, N-(cis-1S,2S-2-Hydroxycyclohexyl)-4-{4-methoxybenzyl}-4H-benzo[1,4]thiazine-2-carboxamide] | – |
| 141 nM | O=C(N[C@H]1CCCC[C@@H]1O)C1=CN(Cc2ccc(Cl)nc2)c2ccccc2S1 [Example 91, N-(cis-1S,2S-2-Hydroxycyclohexyl)-4-{2-chloropyridin-5-ylmethyl}-4H-benzo[1,4]thiazine-2-carboxamide] | – |
